Assay results taken from patent publication US7179828B2, “Biologically active neopeltolide compounds” (priority 2003, dated 2007).
Converted amounts (≈) assume the structure as drawn. Read-outs that look alike come from different tables or passages of the source.

Tests used:
Type in all cases: cell-based
[1] = system: Candida albicans (American Type Culture Collection strain 44506); test: Broth dilution assay (MIC); details: read-out: Minimum Inhibitory Concentration (MIC)
Protocol: (§1) The antifungal activity of neopeltolide against Candida albicans (American Type Culture Collection strain 44506) was determined through the use of both agar diffusion and broth dilution assays.
Broth dilution assays were performed as standard 96-well microtiter assays in a total volume of 50 μl with a seeding density of 10^3 cells/ml. The concentration range for neopeltolide ranged from 5 to 0.4 μg/ml as two-fold dilutions.

[2] = system: NCI-ADR-RES (Formerly MCF-7/ADR) human breast cancer; test: In vitro proliferation of NCI-ADR-RES tumor cells (MTT); details: 72-h exposure, read-out: NCIADR-RES IC50
Protocol: (§2) Neopeltolide was analyzed as to its effect on the proliferation of A549 human lung adenocarcinoma, NCI-ADR-RES (Formerly MCF-7/ADR) human breast cancer and P388 murine leukemia cell lines. P388 cells were obtained from Dr. R. Camalier, National Cancer Institute, Bethesda, Md., and A549 and NCI-ADR-RES cells were obtained from American Type Culture Collection, Rockville, Md.
(§3) All cell lines are maintained in Roswell Park Memorial Institute (RPMI) medium 1640 supplemented with 100 U/mL penicillin 100 μg/ml streptomycin, 60 μg/ml L-glutamine, 18 mM HEPES, 0.05 mg/mL gentamycin and 10% fetal bovine serum. […]
(§4) A volume of 75 μl of warm growth media containing 5 mg/ml MTT is added to each well, cultures returned to the incubator, and left undisturbed for 3 hours. To spectrophotometrically quantitate formation of reduced formazan, plates are centrifuged (900×g, 5 minutes), culture fluids removed by aspiration, and 200 μl of acidified isopropanol (2 ml concentrated HC/liter isopropanol) added per well. The absorbance of the resulting solutions is measured at 570 nm with a plate reader (Spectra II Tecan Laboratories). […]
(§5) The two standard drug controls (indicated above) are included in each assay to monitor the drug sensitivity of each of the cell lines and IC50 values are determined for each drug-cell combination.

P388 murine leukemia = test: In vitro proliferation of P388 tumor cells (MTT); details: Mus musculus, 48-hr exposure
Protocol: as §2, §3, §4, §5

[3] = system: Candida albicans (American Type Culture Collection strain 44506); test: Agar (disk) diffusion assay
Protocol: as §1
Agar diffusion assays were performed using Sabouraud Dextrose agar plates seeded with the test microbe at 10^5/ml. Disks (6.35 mm, Schliecher and Schuell) were impregnated with 25 μg of neopeltolide, allowed to dry and then placed on the agar surface. After incubation at 37° C. for 24 hours the zones of growth inhibition were determined. A control disk containing 100 IU nystatin was run on the same plate as the neopeltolide: the zone of inhibition was 28 mm.

[4] = system: A549 human lung adenocarcinoma; test: In vitro proliferation of A549 tumor cells (MTT); details: 72-h exposure
Protocol: as §2, §3, §4, §5

Nc1nc(=O)[nH]cc1F [5-fluorocytosine, reference compound] gave an MIC ([1]; C. albicans, 96-well broth dilution, 37° C., 24 hours, complete inhibition of growth) of 0.62 µg/mL (≈ 4.8 µM).
For CCCC1CC(OC)CC(C)CC2CC(OC(=O)/C=C\CCc3coc(/C=C\CNC(=O)OC)n3)CC(CC(=O)O1)O2 (stereo not shown) [Neopeltolide (I), Neopeltolide], the IC50 [2] was 5.1 nM, the IC50 (P388 murine leukemia) was 0.56 nM and the zone of inhibition at 25 µg/disc ([3]; Candida albicans, 24 h, read-out: growth inhibitory zone) was 17 mm. For the same molecule, the MIC ([1]; 24 h) was 0.625 µg/mL (≈ 1.06 µM) and the IC50 [4] was 1.17 nM.
In the case of C[C@@H]1[C@H](O)[C@@H](C)/C=C/C=C/CC/C=C/C=C/C=C/C=C/C(O[C@H]2O[C@H](C)[C@@H](O)[C@H](N)[C@@H]2O)CC2O[C@](O)(CC(O)C(O)CCC(O)CC(O)CC(O)CC(=O)O[C@H]1C)CC(O)C2C(=O)O (stereo partly shown) [nystatin, reference compound], the zone of inhibition ([3]; control disk containing 100 IU, C. albicans, 37° C., 24 hours) is reported as 28 mm.
